Results from patent publication US9144569B2, “Methods of administering an aromatase inhibitor, prostaglandin and GnRH for regulating ovulation in cattle” (UNIVERSITY OF SASKATCHEWAN, priority 2010, dated 2015).
Like-named read-outs stand apart in the source and are kept apart here.

Assays:
plasma estradiol = assay: Example I: plasma estradiol by ELISA after single iv dose; type: in vivo, cattle; conditions: doses combined
Method: Heifers in which a CL was detected during the initial examination were given […] cloprostenol (PGF, Estrumate™, Schering-Plough Animal Health, Pointe-Claire, QC, Canada) intramuscularly (im) to induce regression of the CL and to synchronize ovulation. Heifers were examined daily by transrectal ultrasonography to detect ovulation. Transvaginal ultrasound-guided follicular aspiration of follicles ≧5 mm was performed five to eight days after ovulation to synchronize wave emergence. Heifers were examined daily by transrectal ultrasonography to detect follicular wave emergence, which was expected 1 to 1.5 days after follicular ablation. Four days after follicular ablation (approximately 2.5 days after follicular wave emergence), and at the time follicular dominance becomes apparent, heifers were assigned randomly to the following treatment groups and given a single intravenous dose of 1) 500 μg/kg of letrozole (high dose group, n=9), 2) 250 μg/kg of letrozole (medium dose group, n=10), 3) 125 μg/kg of letrozole (low dose group, n=10), or 4) 20 ml of phosphate buffered saline (PBS control group, n=10). For practical purposes, the dose of letrozole was calculated based on an average weight of 400 kg for all heifers. The average oral dose used in women (2.5-5 mg per day for 5 days) was used to estimate the medium dose for cattle. The high and low doses were set as double and half the medium dose, respectively. The day of treatment was defined as Day 0. For intravenous injection, letrozole was prepared in 95% ethanol at a final concentration of 5 mg per ml, resulting in an injection volume of 10-40 ml. The experiment was performed in four replicates (n=2-3 per group per replicate) and each heifer was used only once.
Statistical analyses were done using the Statistical Analysis System software package (SAS Learning Edition 9.1, 2006; SAS Institute Inc., Cary, N.C., USA). Time-series hormone data, plasma letrozole concentration, and follicular diameter profiles were analyzed by repeated measures, using the PROC MIXED procedure. The main effects were treatment (high, medium and low dose, and control), time, and their interactions.

heifers = assay: Example IV: intravaginal device containing 1 g letrozole in heifers, ovulation and ovarian structures; type: in vivo, cattle
Method: To test the hypothesis that letrozole treatment during the preovulatory stage, initiated prior to onset of follicular selection and prolonged for a 7-day period will be able to induce the development of more than one follicle to a preovulatory size and to delay the occurrence of ovulation. To develop a practical route of administration of letrozole in cattle.
Five to eight days after PGF-induced ovulation, FA was performed followed by a double dose of PGF 60 and 72 hr later. Heifers were randomly divided into two groups and received from Day 1 (Day 0=wave emergence) until Day 7 or until ovulation is detected: • intravaginal device containing 1 g of letrozole (n=15) • Intravaginal blank device (letrozole free, n=15)
Transrectal ultrasound examination and blood sample collection were performed daily from day of ablation until Day 12 post-ovulation. blood samples were collected frequently at the time of catheter placement, at 0, 10, 20, 30 min, 1, 1.5, 2, 3, 4, 6, 8, 12 and 24 hours post-treatment

[1] = tested on: Hereford-cross beef heifers; assay: Example II: computer-assisted ultrasound image analysis of CL and dominant follicle; type: in vivo, cattle
Method: Ultrasound images from a subset of letrozole-treated (n=4-5 per group) and control (n=6) heifers were recorded throughout the duration of treatment for computer-assisted image analysis. Images were analyzed using a series of custom-developed computer algorithms optimized for ultrasonography ([…] Version 2.8© Saskatoon, Saskatchewan) on a Sun Sparc Station (Sun Microsystems, MT View, Calif.) computer. Echotexture was defined in terms of mean pixel value and pixel heterogeneity. Mean pixel values were quantified using a grey-scale ranging from 0 (black) to 255 (white). The pixel heterogeneity was the standard deviation of grey-scale values of all the pixels within the user-defined region of measurement. Spot analysis of the follicular antrum and corpus luteum, and line analysis of the peripheral antrum, follicular wall and stroma were done as previously described. For spot analyses, the follicular antrum and the CL wall were divided into four quadrants and the sampling area encompassed 75 to 80% of each quadrant. For line analyses, a straight line was drawn transversing the follicular wall from peripheral antrum to stroma and the pixel values along that line were measured in areas located within the 10 and 2 o'clock position of the follicles.
Statistical analyses were done using the Statistical Analysis System software package (SAS Learning Edition 9.1, 2006; SAS Institute Inc., Cary, N.C., USA). Time-series hormone data, plasma letrozole concentration, and follicular and luteal diameter profiles were analysed by repeated measures, using the PROC MIXED procedure. The main effects were treatment, time, and their interactions. […] Single point measurements (interwave and interovulatory intervals, interval from ovulation to onset of CL regression, mean and basal LH concentrations, LH pulse amplitude and frequency, and pharmacokinetic parameters for letrozole) were analysed by analysis of variance. […] If significant main effects or interactions (P≦0.05) were detected, Tukey's post-hoc test was used for multiple comparisons.

circulating estradiol [2] = conditions: post-menopausal women [30]; cited from earlier work
circulating estradiol [3] = conditions: boars [56]; cited from earlier work

N#Cc1ccc(C(c2ccc(C#N)cc2)n2cncn2)cc1 [Letrozole, letrozole]
plasma estradiol concentration (plasma estradiol; 0 hours (at treatment), mean±SEM): 15.2 ± 3.01 pg/mL | plasma estradiol concentration (plasma estradiol; 24 hours after single iv dose, P=0.03 vs 0 hours): 8.0 ± 1.51 pg/mL | decrease of plasma estradiol from 0 to 24 hours after treatment (plasma estradiol; single iv dose): ~50% | mean plasma estradiol over the 4-day period after treatment compared to controls (plasma estradiol; single iv dose, P=0.06): tended to be higher | size of the ovulated dominant follicle (DF) (heifers): larger DF | delay of ovulation (heifers; Day 1 to Day 7 of pre-ovulatory wave): 24 h | mean pixel values and heterogeneity of the dominant follicle antrum (spot analysis) ([1]; 3-day regimen, any of the three periods): not affected significantly | mean pixel values of the dominant follicle wall (line analysis), pre- to post-treatment ([1]; treated Days 1 to 3, P<0.06): increased | mean pixel values or heterogeneity along the follicular wall (line analysis) ([1]; treated Days 3 to 5 (printed Days 3 and 5)): no effect | mean pixel values or heterogeneity along the follicular wall (line analysis) ([1]; treated Days 5 to 7 (printed Days 5 and 7)): no effect | reduction in circulating estradiol concentrations (circulating estradiol [2]): 97-99% | reduction in circulating estradiol concentrations (circulating estradiol [3]): 88%
